Assay: Inhibition of influenza A virus chicken/Nakorn-Patom/Thailand/CU-K2-2004 Neuraminidase N1 at pH 7.4 by DIANA assay

Compound | Ki [µM]
CCC(CC)O[C@@H]1C=C(C(=O)O)C[C@H](NCc2cn(CCO)nn2)[C@H]1NC(C)=O | 0.47
CCC(CC)O[C@@H]1C=C(C(=O)O)C[C@H](n2cc(C[C@@]3(C(=O)O)CCCN3)nn2)[C@H]1NC(C)=O | 49
CCC(CC)O[C@@H]1C=C(C(=O)O)C[C@H](n2cc(CNc3ccccc3C(N)=O)nn2)[C@H]1NC(C)=O | 5.1
CCC(CC)O[C@@H]1C=C(C(=O)O)C[C@H](NCc2cn(CC(=O)NC)nn2)[C@H]1NC(C)=O | 0.74
CCC(CC)O[C@@H]1C=C(C(=O)O)C[C@H](n2cc(CO)nn2)[C@H]1NC(C)=O | 5.3
CCC(CC)O[C@@H]1C=C(C(=O)O)C[C@H](n2cc(CNc3cccc(C(F)(F)F)c3)nn2)[C@H]1NC(C)=O | 1.9
CCC(CC)O[C@@H]1C=C(C(=O)O)C[C@H](n2cc(CNc3ccc(C(N)=O)c(C(F)(F)F)c3)nn2)[C@H]1NC(C)=O | 5
CCC(CC)O[C@@H]1C=C(C(=O)O)C[C@H](n2cc(CNc3ccc(NC(C)=O)cc3)nn2)[C@H]1NC(C)=O | 5.6
CCC(CC)O[C@@H]1C=C(C(=O)O)C[C@H](n2cc(COCC(C)(CO)CO)nn2)[C@H]1NC(C)=O | 49
CCC(CC)O[C@@H]1C=C(C(=O)O)C[C@H](NCc2cn(CC(=O)O)nn2)[C@H]1NC(C)=O | 4.3
CCC(CC)O[C@@H]1C=C(C(=O)O)C[C@H](NCc2cn(CCN3CCS(=O)(=O)CC3)nn2)[C@H]1NC(C)=O | 6.2
CCC(CC)O[C@@H]1C=C(C(=O)O)C[C@H](n2cc(-c3cccs3)nn2)[C@H]1NC(C)=O | 7.1
CCC(CC)O[C@@H]1C=C(C(=O)O)C[C@H](n2cc(CNc3ccccc3)nn2)[C@H]1NC(C)=O | 5
CCC(CC)O[C@@H]1C=C(C(=O)O)C[C@H](NCc2cn(CC(C)(CO)CO)nn2)[C@H]1NC(C)=O | 0.71
CCC(CC)O[C@H]1CC(C(=O)O)=C[C@@H](n2cc(CN3CCS(=O)(=O)CC3)nn2)[C@@H]1NC(C)=O | 94
CCC(CC)O[C@@H]1C=C(C(=O)O)C[C@H](n2cc(-c3ccsc3)nn2)[C@H]1NC(C)=O | 4
CCC(CC)O[C@@H]1C=C(C(=O)O)C[C@H](NCc2cn(CC(=O)N(C)C)nn2)[C@H]1NC(C)=O | 3.1
CCC(CC)O[C@@H]1C=C(C(=O)O)C[C@H](n2cc(C[C@H](N)C(=O)O)nn2)[C@H]1NC(C)=O | 25
CCC(CC)O[C@@H]1C=C(C(=O)O)C[C@H](n2cc(CN(C)c3ccc(OC)cc3)nn2)[C@H]1NC(C)=O | 8.1
CCC(CC)O[C@@H]1C=C(C(=O)O)C[C@H](n2cc(CNc3cc(F)ccc3OC)nn2)[C@H]1NC(C)=O | 11

Reference: BindingDB's records for doi:10.1016/j.bmc.2019.05.024 (Charles University, 2019)
